According to US9999623B2, “Use of substituted 2,3-dihydroimidazo[1,2-c]quinazolines for treating lymphomas” (BAYER PHARMA AKTIENGESELLSCHAFT, priority 2013, dated 2018):
Counter-ions that a name gives are not always drawn.

Legend:
DLBCL cell lines = assay: 72-h CellTiter-Glo anti-proliferative assay; type: cell-based, human; conditions: for anti-proliferative activity profile across DLBCL cell lines: panel of 8 DLBCL cell lines; for IC50: Homo sapiens
Method: Briefly, cells were plated at 250-2000 cells/well of 384-well plates (based on cell lines) in 20 μL of growth medium. For each cell line assayed, cells were plated into a separate plate for determination of luminescence at the t=0 hours and t=72 hour time points. […] Dose plates for t=72 hour time points were treated with compounds diluted into growth medium in a final volume of 30 μL. Cells were then incubated for 72 hours at 37° C. Luminescence values for the t=72 hour samples were determined by adding 30 μL of Promega CellTiter-Glo solution, placing the cells on a shaker for 10 minutes at room temperature, and then reading the luminescence using a Victor luminometer. For data processing, t=0 values are subtracted from those determined for the t=72 hour time points, for both the treated and untreated samples. Percent differences in luminescence between drug treated and controls are used to determine percent inhibition of growth.

[1] = system: signaling pathways in OCI-Ly3 and HBL-1 cells; assay: Western blot modulation of intracellular signaling pathways; type: cell-based, human; conditions: 24 h post treatment
Method: Modulation of intracellular pathways were assessed by Western blots at 24 h post treatment with indicated compounds either as single agent or in combination. Antibodies used in this study are AKT (#4685, Cell Signaling), p-AKT (04060, Cell Signaling), ERK (#4695, Cell Signaling), p-ERK (#4376, Cell Signaling), BTK (#3533, Cell Signaling), p-BTK (05082, Cell Signaling), IκBα (#4812, Cell Signaling), p-IκBα (#AF4809, R&D), p-IKKα/β (02078, Cell Signaling), IKKβ (02370, Cell Signaling).

follicular NHL [2] = assay: Initial clinical efficacy in NHL patients (phase I dose-escalation), follicular NHL; type: in vivo, human; conditions: patients with PR/patients; PR at end of cycle 2 at 0.8 mg/kg, one case end of cycle 4 at 0.6 mg/kg
Method: A phase I dose-escalation study (Patnaik et al, ASH 2012) established the maximum tolerated dose of COMPOUND OF FORMULA I (0.8 mg/kg) and reported promising activity (6/6 PR) in follicular lymphoma. In the present study we further investigated the activity and safety of COMPOUND OF FORMULA I in patients with indolent or aggressive lymphoma subtypes that have progressed after standard therapy.

DLBCL [3] = assay: Initial clinical efficacy in NHL patients (phase I dose-escalation), DLBCL; type: in vivo, human; conditions: DLBCL patient with SD
Half-life in mice = conditions: mouse, in vivo, iv
[4] = system: indolent or aggressive lymphoma; assay: Phase II study, single agent, response by lymphoma subtype; type: in vivo, human; conditions: for Best response CR/CRu, number of patients / Best response PD, number of patients / Best response PR, number of patients / Best response SD, number of patients: staged patients; for complete RR / overall response rate (RR): interim analysis
Method: In this Phase II study, patients with histologically confirmed indolent or aggressive lymphoma relapsed or refractory to ≥2 prior lines of treatment were eligible. Patients received COMPOUND OF FORMULA I at a dose of 0.8 mg/kg as a 1 hour infusion on days 1, 8 and 15 of a 28-day cycle. Patients continued on therapy until disease progression or unacceptable toxicity. Responses were assessed every two cycles according to the response criteria for lymphoma (Cheson et al, JCO 17:1244, 1999) or the guidelines for diagnosis and treatment of chronic lymphocytic leukemia (CLL; Hallek et al., Blood 111:5446-56, 2008).
As of May 31, 2013, a total of 61 lymphoma patients (27 indolent and 34 aggressive) were enrolled and 56 started study treatment. Patients were similarly distributed among indolent and aggressive cohorts with respect to gender (52% female), median age (68 yr, range 22-90) and ethnicity (76% Caucasian) and were heavily pretreated (median number of prior therapies: 3; prior Rituximab: 84%; prior ASCT: 20%). Other characteristics included advanced stage III-IV in 85% and B symptoms in 17%. The following entities were represented: follicular (FL; n=13); CLL (n=11); marginal zone (MZL; n=3; none re-staged); diffuse large B-cell (DLBCL; n=17); mantle cell (MCL; n=7); transformed (n=5); and peripheral T-cell (PTCL; n=4). At the time of analysis patients had received between 1 and 5 cycles of treatment. Objective responses were seen across histologic subtypes (Table 1). At the time of this interim analysis, the overall response rate (RR) and complete RR were 44% and 22% in FL, 83% and 17% in MCL, and 50% and 0% in PTCL, respectively.

[5] = Phase II study, single agent, safety (adverse events); type: in vivo, human
Method: Patients received COMPOUND OF FORMULA I at a dose of 0.8 mg/kg as a 1 hour infusion on days 1, 8 and 15 of a 28-day cycle. Patients continued on therapy until disease progression or unacceptable toxicity.

follicular NHL [6] = conditions: phase I dose-escalation study (Patnaik et al, ASH 2012); cited from earlier work
[7] = phase I dose-escalation study (Patnaik et al, ASH 2012); cited from earlier work
DLBCL [8] = conditions: patients with PD/patients; cited from earlier work
TMD-8 tumor cells = conditions: 20 mg/kg once daily po; day 29
Method: Untreated female 5-6 week old CB17.Scid mice are inoculated with 10×10^6 TMD-8 tumor cells (suspended in 50% Matrigel and 50% Medium) subcutaneously into the flank. Animals are randomized to treatment groups when tumors reach a tumor area of 30-35 mm^2. Treatment is conducted as described in FIG. 5 legend. Tumor area and animal body are recorded three times per week.
Tumor growth was monitored by determination of the tumor area using caliper measurement 3 times weekly. QD, once daily; SD, standard deviation of the mean; TGI, relative tumor growth inhibition vs control (%, tumor area at the end of the study on day 29)

Structure (SMILES): O=C1Nc2nc(-c3c(O)cccc3OCC3CC3)cc([C@@H]3CCCNC3)c2CO1 [BAY Compound B]
- anti-proliferative activity profile across DLBCL cell lines (DLBCL cell lines): more active in ABC-DLBCL compared with GCB-DLBCL cell lines
- feedback activation of p-IKKα/β ([1]; both HBL-1 and OCI-Ly3 cells): Activation of p-IKKα/β

Structure (SMILES): COc1c(OCCCN2CCOCC2)ccc2c1N=C(NC(=O)c1cnc(N)nc1)N1CCN=C21 [COMPOUND A, 2-amino-N-[7-methoxy-8-(3-morpholin-4-ylpropoxy)-2,3-dihydroimidazo[1,2-c]quinazolin-5-yl]pyrimidine-5-carboxamide dihydrochloride]
- PR (partial response) in follicular NHL (follicular NHL [2]): 6/6
- tumor reduction (DLBCL [3]): 39%
- half-life (Half-life in mice): ~1 h

Structure (SMILES): COc1c(OCCCN2CCOCC2)ccc2c1N=C(NC(=O)c1cnc(N)nc1)N1CCN=C21 [COMPOUND OF FORMULA I, 2-amino-N-[7-methoxy-8-(3-morpholin-4-ylpropoxy)-2,3-dihydroimidazo[1,2-c]quinazolin-5-yl]pyrimidine-5-carboxamide]
- Best response CR/CRu, number of patients ([4]; CLL (n = 9)): 0
- Best response PD, number of patients ([4]; CLL (n = 9)): 1
- Best response PR, number of patients ([4]; CLL (n = 9)): 4
- Best response SD, number of patients ([4]; CLL (n = 9)): 4
- Best response CR/CRu, number of patients ([4]; DLBCL (n = 17)): 0
- Best response PD, number of patients ([4]; DLBCL (n = 17)): 8
- Best response PR, number of patients ([4]; DLBCL (n = 17)): 2
- Best response SD, number of patients ([4]; DLBCL (n = 17)): 7
- Best response CR/CRu, number of patients ([4]; FL (n = 9)): 2
- Best response PD, number of patients ([4]; FL (n = 9)): 0
- Best response PR, number of patients ([4]; FL (n = 9)): 2
- Best response SD, number of patients ([4]; FL (n = 9)): 5
- complete RR ([4]; FL): 22%
- overall response rate (RR) ([4]; FL, 0.8 mg/kg days 1, 8, 15 of 28-day cycle): 44%
- Best response CR/CRu, number of patients ([4]; MCL (n = 6)): 1
- Best response PD, number of patients ([4]; MCL (n = 6)): 1
- Best response PR, number of patients ([4]; MCL (n = 6)): 4
- Best response SD, number of patients ([4]; MCL (n = 6)): 0
- complete RR ([4]; MCL): 17%
- overall response rate (RR) ([4]; MCL): 83%
- Best response CR/CRu, number of patients ([4]; PTCL (n = 4)): 0
- Best response PD, number of patients ([4]; PTCL (n = 4)): 2
- Best response PR, number of patients ([4]; PTCL (n = 4)): 2
- Best response SD, number of patients ([4]; PTCL (n = 4)): 0
- complete RR ([4]; PTCL): 0%
- overall response rate (RR) ([4]; PTCL): 50%
- Best response CR/CRu, number of patients ([4]; Transformed (n = 5)): 0
- Best response PD, number of patients ([4]; Transformed (n = 5)): 2
- Best response PR, number of patients ([4]; Transformed (n = 5)): 1
- Best response SD, number of patients ([4]; Transformed (n = 5)): 2
- clinical activity ([4]; single agent, 1st line, 2nd line, relapsed, refractory lymphoma): clinically active as a single agent
- deaths ([5]; 1 progressive disease, 1 acute respiratory insufficiency, 1 Cryptococcal meningitis, 1 sepsis after salvage chemotherapy): Four
- toxicity profile ([5]; 1st line, 2nd line, relapsed, refractory lymphoma): acceptable toxicity profile
- cases of interstitial pneumonitis ([5]; both resolved following corticosteroid administration): two
- Hyperglycemia of any grade ([5]; in vivo): 47%
- Withdrawal of study drug due to AEs ([5]; in vivo): 10 patients
- colitis ([5]; in vivo): No case of colitis was reported
- grade 4 hyperglycemia ([5]; in vivo): no grade 4 hyperglycemia was observed
- grade 4 hypertension ([5]; in vivo): no grade 4 hypertension was reported
- patients who required a dose reduction ([5]; in vivo): 4 patients
- patients who required antihypertensive treatment ([5]; in vivo): Eight
- patients who required insulin therapy ([5]; in vivo): Four
- Diarrhea of any grade ([5]; of cases): 25%
- Grade 3/4 AE diarrhea ([5]; of patients): 5%
- Grade 3/4 AE fatigue ([5]; of patients): 5%
- Grade 3/4 AE hyperglycemia ([5]; of patients): 13%
- Grade 3/4 AE hypertension ([5]; of patients): 31%
- Grade 3/4 AE neutropenia ([5]; of patients): 16%
- Grade 3 adverse events (AE) ([5]; of patients): 49%
- Hypertension of any grade ([5]; of patients): 46%
- Withdrawal of study drug due to AEs ([5]; of patients): 16%
- grade 4 AE (all neutropenia) ([5]; of patients): 15%
- PR in follicular lymphoma (follicular NHL [6]): 6/6
- maximum tolerated dose [7]: 0.8 mg/kg

Structure (SMILES): CC[C@H](Nc1ncnc2[nH]cnc12)c1nc2cccc(F)c2c(=O)n1-c1ccccc1 [GS-1101]
- decreased activity with respect to IC50 values (DLBCL cell lines; any mutations downstream of BCR): > 100 fold
- anti-proliferative activity profile across DLBCL cell lines (DLBCL cell lines): active only in BCR-mutant cell lines without downstream mutations
- feedback activation of p-ERK ([1]; HBL-1 cells): Activation of p-ERK
- PD (progression of disease) in DLBCL patients (DLBCL [8]): 9/9

Structure (SMILES): C=CC(=O)N1CCC[C@@H](n2nc(-c3ccc(Oc4ccccc4)cc3)c3c(N)ncnc32)C1 [ibrutinib]
- IC50 (DLBCL cell lines; BCR-mutant cell lines even in the presence of activating NFκB pathway): < 30 nM
- IC50 (DLBCL cell lines; cell lines without BCR-activating mutations (or complete inactivity)): > 1000 nM
- TGI (rel TA) (TMD-8 tumor cells): 70%
- feedback activation of p-ERK ([1]; both HBL-1 and OCI-Ly3 cells): Activation of p-ERK
